Active and inactive are the calls of the source. No cut-off for these calls is given here.
Target: Amyloid-beta precursor protein (Homo sapiens) (UniProt P05067)
Experiment: Inhibition of amyloid beta (1 to 42) (unknown origin)-induced cytotoxicity in human SH-SY5Y cells assessed as increase in cell viability at 12.5 uM after 24 hrs by WST8 assay
Assay type: cell-based

Amyloid-beta precursor protein (Homo sapiens), sequence (P05067 whole entry): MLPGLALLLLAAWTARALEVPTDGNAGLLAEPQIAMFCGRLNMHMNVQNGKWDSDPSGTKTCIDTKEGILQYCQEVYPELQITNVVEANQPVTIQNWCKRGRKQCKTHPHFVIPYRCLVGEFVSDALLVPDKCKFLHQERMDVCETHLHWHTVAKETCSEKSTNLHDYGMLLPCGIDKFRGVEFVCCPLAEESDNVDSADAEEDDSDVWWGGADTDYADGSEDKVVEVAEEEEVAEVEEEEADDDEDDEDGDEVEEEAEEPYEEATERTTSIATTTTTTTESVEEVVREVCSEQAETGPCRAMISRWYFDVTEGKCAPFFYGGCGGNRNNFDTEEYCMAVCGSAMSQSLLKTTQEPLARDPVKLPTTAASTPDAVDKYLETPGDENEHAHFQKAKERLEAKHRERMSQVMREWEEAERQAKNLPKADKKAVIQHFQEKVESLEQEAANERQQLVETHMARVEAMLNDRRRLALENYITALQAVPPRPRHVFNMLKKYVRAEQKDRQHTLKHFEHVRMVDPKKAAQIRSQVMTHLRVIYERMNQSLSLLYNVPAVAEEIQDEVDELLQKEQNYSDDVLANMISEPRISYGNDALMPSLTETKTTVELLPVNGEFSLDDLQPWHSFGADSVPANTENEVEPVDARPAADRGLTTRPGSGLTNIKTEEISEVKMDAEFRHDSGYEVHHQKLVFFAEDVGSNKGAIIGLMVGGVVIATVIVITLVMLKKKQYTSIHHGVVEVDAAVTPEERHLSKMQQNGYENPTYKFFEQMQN

Row | Compound | inhibition
1 | O=C(OC[C@H]1O[C@@H](OC(=O)c2cc(O)c(O)c(OC(=O)c3cc(O)c(O)c(O)c3)c2)[C@H](OC(=O)c2cc(O)c(O)c(OC(=O)c3cc(O)c(O)c(O)c3)c2)[C@@H](OC(=O)c2cc(O)c(O)c(OC(=O)c3cc(O)c(O)c(O)c3)c2)[C@@H]1OC(=O)c1cc(O)c(O)c(OC(=O)c2cc(O)c(O)c(O)c2)c1)c1cc(O)c(O)c(OC(=O)c2cc(O)c(O)c(O)c2)c1 | inactive
2 | CC1(C)CC[C@]2(C(=O)O)CC[C@]3(C)C(=CC[C@@H]4[C@@]5(C)CC[C@H](O)C(C)(C)[C@@H]5CC[C@]43C)[C@@H]2C1 | inactive
3 | CC1(C)CC[C@]2(C(=O)O)[C@@H](O)C[C@]3(C)C(=CC[C@@H]4[C@@]5(C)CC[C@H](O)C(C)(C)[C@@H]5CC[C@]43C)[C@@H]2C1 | inactive
4 | CC1(C)C[C@H](O)[C@]2(CO)[C@@H](O)C[C@]3(C)C(=CC[C@@H]4[C@@]5(C)CC[C@H](O)C(C)(C)[C@@H]5CC[C@]43C)[C@@H]2C1 | inactive
5 | CC(=O)OC[C@]12[C@@H](OC(C)=O)CC(C)(C)C[C@H]1C1=CC[C@@H]3[C@@]4(C)CC[C@H](O)C(C)(C)[C@@H]4CC[C@@]3(C)[C@]1(C)C[C@@H]2OC(C)=O | inactive

Target: Amyloid-beta precursor protein (Homo sapiens) (UniProt P05067)
Experiment: Inhibition of amyloid beta (1 to 42) (unknown origin)-induced cytotoxicity in human SH-SY5Y cells assessed as increase in cell viability at 50 uM after 24 hrs by WST8 assay
Assay type: cell-based

Row | Compound | protection from amyloid beta cytotoxicity (active/not active)
6 | C[C@@H]1O[C@@H](OC(=O)[C@]23CCC(C)(C)C[C@H]2C2=CC[C@@H]4[C@@]5(C)CC[C@H](O[C@@H]6O[C@H](C(=O)O)[C@@H](O)[C@H](O[C@@H]7O[C@@H](C)[C@H](O)[C@@H](O)[C@H]7O)[C@H]6O[C@@H]6O[C@H](CO)[C@@H](O)[C@H](O)[C@H]6O)C(C)(C)[C@@H]5CC[C@@]4(C)[C@]2(C)C[C@@H]3O)[C@H](O)[C@H](O)[C@H]1O | Active
7 | CC1(C)CC[C@]2(C(=O)O[C@@H]3O[C@H](CO)[C@@H](O)[C@H](O)[C@H]3O)CC[C@]3(C)C(=CC[C@@H]4[C@@]5(C)CC[C@H](O[C@@H]6O[C@H](C(=O)O)[C@@H](O)[C@H](O)[C@H]6O[C@@H]6O[C@H](CO)[C@@H](O)[C@H](O)[C@H]6O[C@@H]6OC[C@@H](O)[C@H](O)[C@H]6O)C(C)(C)[C@@H]5CC[C@]43C)[C@@H]2C1 | Active
8 | CC(=O)OC[C@]12[C@@H](OC(C)=O)CC(C)(C)C[C@H]1C1=CC[C@@H]3[C@@]4(C)CC[C@H](O[C@@H]5O[C@H](C(=O)O)[C@@H](O)[C@H](O)[C@H]5O[C@@H]5O[C@H](CO)[C@@H](O)[C@H](O)[C@H]5O[C@@H]5O[C@@H](C)[C@H](O)[C@@H](O)[C@H]5O)C(C)(C)[C@@H]4CC[C@@]3(C)[C@]1(C)C[C@@H]2OC(C)=O | inactive
9 | C[C@@H]1O[C@@H](O[C@H]2[C@H](O)[C@@H](C(=O)O)O[C@@H](O[C@H]3CC[C@]4(C)[C@H]5CC=C6[C@@H]7CC(C)(C)CC[C@]7(C(=O)O[C@@H]7O[C@H](CO)[C@@H](O)[C@H](O)[C@H]7O)CC[C@@]6(C)[C@]5(C)CC[C@H]4C3(C)C)[C@@H]2O[C@@H]2O[C@H](CO)[C@@H](O)[C@H](O)[C@H]2O)[C@H](O)[C@H](O)[C@H]1O | Active
10 | C[C@@H]1O[C@@H](OC(=O)[C@]23CCC(C)(C)C[C@H]2C2=CC[C@@H]4[C@@]5(C)CC[C@H](O[C@@H]6O[C@H](C(=O)O)[C@@H](O)[C@H](O)[C@H]6O[C@@H]6O[C@H](CO)[C@@H](O)[C@H](O)[C@H]6O[C@@H]6OC[C@@H](O)[C@H](O)[C@H]6O)C(C)(C)[C@@H]5CC[C@@]4(C)[C@]2(C)C[C@@H]3O)[C@H](O)[C@H](O)[C@H]1O | Active

Target: Amyloid-beta precursor protein (Homo sapiens) (UniProt P05067)
Experiment: Inhibition of amyloid beta (1 to 42) (unknown origin)-induced cytotoxicity in human SH-SY5Y cells assessed as cell viability at 6.25 uM after 24 hrs by WST8 assay (reference value: 63.1 +/- 5.6%)
Assay type: cell-based

Row | Compound | Activity [%]
11 | O=C(OC[C@H]1O[C@@H](OC(=O)c2cc(O)c(O)c(OC(=O)c3cc(O)c(O)c(O)c3)c2)[C@H](OC(=O)c2cc(O)c(O)c(OC(=O)c3cc(O)c(O)c(O)c3)c2)[C@@H](OC(=O)c2cc(O)c(O)c(OC(=O)c3cc(O)c(O)c(O)c3)c2)[C@@H]1OC(=O)c1cc(O)c(O)c(OC(=O)c2cc(O)c(O)c(O)c2)c1)c1cc(O)c(O)c(OC(=O)c2cc(O)c(O)c(O)c2)c1 | 78.8

Target: Amyloid-beta precursor protein (Homo sapiens) (UniProt P05067)
Experiment: Inhibition of amyloid beta (1 to 42) (unknown origin)-induced cytotoxicity in human SH-SY5Y cells assessed as cell viability at 50 uM after 24 hrs by WST8 assay (reference value: 63.1 +/- 5.6%)
Assay type: cell-based

Row | Compound | Activity [%]
12 | CC(=O)OC[C@]12[C@@H](OC(C)=O)CC(C)(C)C[C@H]1C1=CC[C@@H]3[C@@]4(C)CC[C@H](O[C@@H]5O[C@H](C(=O)O)[C@@H](O)[C@H](O[C@@H]6O[C@@H](C)[C@H](O)[C@@H](O)[C@H]6O)[C@H]5O[C@@H]5O[C@H](CO)[C@@H](O)[C@H](O)[C@H]5O)C(C)(C)[C@@H]4CC[C@@]3(C)[C@]1(C)C[C@@H]2OC(C)=O | 87.4
13 | COC(=O)[C@H]1O[C@@H](O[C@H]2CC[C@]3(C)[C@H]4CC=C5[C@@H]6CC(C)(C)C[C@H](OC(C)=O)[C@]6(COC(C)=O)[C@@H](OC(C)=O)C[C@@]5(C)[C@]4(C)CC[C@H]3C2(C)C)[C@H](O[C@@H]2O[C@H](CO)[C@@H](O)[C@H](O)[C@H]2O[C@@H]2OC[C@@H](O)[C@H](O)[C@H]2O)[C@@H](O)[C@@H]1O | 84.3
14 | COC(=O)[C@H]1O[C@@H](O[C@H]2CC[C@]3(C)[C@H]4CC=C5[C@@H]6CC(C)(C)C[C@H](OC(C)=O)[C@]6(COC(C)=O)[C@@H](OC(C)=O)C[C@@]5(C)[C@]4(C)CC[C@H]3C2(C)C)[C@H](O[C@@H]2O[C@H](CO)[C@@H](O)[C@H](O)[C@H]2O)[C@@H](O[C@@H]2O[C@@H](C)[C@H](O)[C@@H](O)[C@H]2O)[C@@H]1O | 79.2
15 | CC(=O)OC[C@]12[C@@H](OC(C)=O)CC(C)(C)C[C@H]1C1=CC[C@@H]3[C@@]4(C)CC[C@H](O[C@@H]5O[C@H](C(=O)O)[C@@H](O)[C@H](O)[C@H]5O[C@@H]5O[C@H](CO)[C@@H](O)[C@H](O)[C@H]5O[C@@H]5OC[C@@H](O)[C@H](O)[C@H]5O)C(C)(C)[C@@H]4CC[C@@]3(C)[C@]1(C)C[C@@H]2OC(C)=O | 83.7

Source: ChEMBL document CHEMBL4020753, “Inhibition of amyloid β aggregation and protective effect on SH-SY5Y cells by triterpenoid saponins from the cactus Polaskia chichipe” (Bioorg Med Chem, 2017)
